Data as given in US20080004345A1, “Novel Water-Soluble Fullerene, Process for Producing the Same and Active Oxygen Generator Containing the Fullerene” (priority 2004, published 2008).

Assays:
[1] = Molecular weight of aggregate by high performance liquid chromatography (TSKgel G3000PWXL); assay type: physicochemical; settings: HPLC, 50 mM phosphate buffer pH 6.9 with 0.3 M sodium chloride (20% acetonitrile for Example 1), PEG molecular weight markers
Method: Measurement of molecular weight of a fraction obtained by extracting the reaction liquid with equivalent amount of distilled water in Example 1 and a fraction after passing the aqueous layer through the cation exchange resin column was carried out using high performance liquid chromatography system 8020 (Tosoh Co., Ltd.) with TSKgel G3000PWXL (Tosoh Co., Ltd.). 50 mM phosphate buffer (pH 6.9) containing 20% acetonitrile and 0.3 M sodium chloride was used as mobile phase with a flow rate of mobile phase of 0.5 mL/min and the detection was performed at ultra-violet absorption of fullerene. Polyethylene glycols having known molecular weight (molecular weight 94,000 and 5,000) were used as molecular weight markers and the retention time was shown in FIG. 1.
As a comparative control, PEG having a methyl group at one end and an aminopropyl group at the other end and having a molecular weight 5000 was used, and the measurement of molecular weight of a fullerene-water-soluble polymer conjugate synthesized in a molar ratio of 1:10 following a method described in Example 1 of JP-A-09-235235 was carried out. 50 mM phosphate buffer (pH 6.9) containing 0.3 M sodium chloride was used as mobile phase with a flow rate of mobile phase of 1 mL/min and the detection was performed at ultra-violet absorption of fullerene. […]

[2] = Particle size measurement by light scattering method; assay type: physicochemical; settings: in distilled water, 1 mg/mL and 100 μg/mL
Method: Particle size measurement by light scattering method was performed on the water-soluble fullerene of the present invention. The water-soluble fullerene which was synthesized with Example 1 was dissolved in distilled water so that the final concentration might be 1 mg/mL and 100 μg/mL. This solution was measured with light scattering measuring apparatus DLS-7000 (Otsuka Electronics Co., Ltd.).

[3] = test system: mouse colon cancer Colon26; experiment: In vivo anticancer activity by light irradiation in cancer bearing mice
Method: Administration routes were changed and anticancer activity in vivo by light irradiation was compared. Cancer bearing mice were prepared by removing a tumor block which had been passaged from mouse colon cancer Colon26 cells (provided by Cancer Chemotherapy Center of Cancer Research Society) by subcutaneous transplantation of BALB/c-nn (female, Charles River-Laboratories Japan, Inc.) and transplanting a strip piece onto the back subcutis of CDF1 mouse (female, Charles River Laboratories Japan, Inc.). The cancer bearing mice were used in the experiment in five days after transplantation in which cancer having a diameter of around 5 mm was formed in subcutis. […]
Cancer bearing mice to which water-soluble fullerene was not administered and which were not irradiated with light were used as a control group and the size of the tumor of the subcutaneous region was measured for each mouse with time. The cancer size was measured by actually measuring the major axis and the minor axis of the cancer with a slide caliper and calculated using a calculation formula reported by Winn (Natl. Cancer Inst Monogr., Vol. 2, p 113-138 (1960)).

[4] = Amount of active oxygen generated by light irradiation, cytochrome method; settings: 200 μM solution mixed with cytochrome c in HBSS, light 220-800 nm, 30° C., 20 minutes
Method: The amount of generated active oxygen (superoxide anion, O2^−) was measured by cytochrome method. 200 μL of a solution in which cytochrome c (Nacalai Tesque Corporation) was dissolved in a Hanks' balanced salt solution (HBSS, pH 7.4, Lifetech Oriental Company) so that the final concentration might be 50 μM and 200 μL of a solution in which fullerene linked to one molecule of PEG (molecular weight 12000) prepared in Example 2 was dissolved in HBSS so that the final concentration might be 200 μM were mixed. This mixed solution was irradiated with light of various wavelengths (220-800 nm) with spectrophotofluorometer F-2000 (Hitachi, Ltd.) at 30° C. for 20 minutes. After irradiation, absorbance of the solution at 550 nm was measured with spectrophotometer DU-650 (Beckmann Company). The amount of generated O2— per minute was shown in FIG. 4 assuming a solution under light shielding condition at 30° C. for 20 minutes as control.

RLmale 1 cells = experiment: In vitro cancer cell growth inhibitory activity by light irradiation; assay type: cell-based; settings: 62.5-250 μM solutions, light irradiated for 40 minutes, cultured three days
Method: Cancer cell growth inhibitory activity in in vitro by light irradiation was measured. RLmale 1 cells (provided by Kyoto Pasteur Laboratory) were used as a cancer cell and these cells were incubated under culture conditions of 5% CO2, 95% atmosphere, at 37° C. in RPMI 1640 culture medium (Sigma Company, containing 10% fetal bovine serum) with 100 mm dish till they became 80% confluent. The water-soluble fullerene of Example 2 was dissolved in a culture medium of the same composition as used for culture of cancer cells under light shielding condition and after adjusted to the concentration of 250 μM, it was sterilized and filtered. The sterilized solution of 250 μM was diluted with a culture medium sequentially to prepare solutions of 125 μM and 62.5 μM. […] After the culturing for three days, 10 μL each of viable count measurement reagent SF (Nacalai Tesque Corporation) was added into each well, and after kept warm in an incubator for 80 minutes, absorbance at 450 nm was measured with a microplate leader VERSAmax (Japanese Molecular Device Company). The survival rate of cancer cells was determined assuming that the absorbance at 450 nm for the case in which compound of Example 2 was not added was 100% survival rate and the results are shown in FIG. 5.

[5] = Amount of active oxygen generated by ultrasonic irradiation, viable count measurement reagent SF; settings: 200 μM solution, 1 MHz, duty cycle 30%, five minutes, output 1.5, 2.0, 2.5 and 3.0 W/cm^2
Method: The amount of active oxygen (superoxide anion, O2^−) generated by ultrasonic irradiation was measured using viable count measurement reagent SF with reference to a report by Ukeda (DOJIN NEWS, No. 96, p 1-6, 2000). A solution in which water-soluble fullerene of Example 2 was dissolved in a Hanks' balanced salt solution so that it might be 200 μM was dispensed to 35 mm dish by 750 μL. This was mixed with 600 μL of a Hanks' balanced salt solution and 150 μL of viable count measurement reagent SF and, while stirred, irradiated with ultrasonic waves of various output (1.5, 2.0, 2.5 and 3.0 W/cm^2) with a frequency of 1 MHz, output mode (Duty cycle) 30% for five minutes from the liquid surface using an sonodynamic therapy device US-700 (Ito Ultrashort Wave Company). After irradiation, absorbance of the solution at 450 nm was measured with a spectrophotometer DU-650. The absorbance of the solution irradiated with ultrasonic wave without adding a compound at 450 nm was assumed as control and the amount of generated O2 per minute was shown in FIG. 7.

| Substance | molecular weight of aggregate formed by self assembly [1] | particle diameter of aggregate [2] | increase of tumor volume ([3]; Colon26 bearing CDF1 mice, administration combined with light irradiation of tumor site, three consecutive days) | order of tumor suppression effect by administration route ([3]; subcutaneous or intra-tumor 6 mg/mL 100 μL, light 5 minutes after, intravenous 60 mg/mL 100 μL, light 24 hours after) | generation of O2− on light irradiation [4] | wavelength range of particularly significant O2− generation [4] | survival rate of cancer cells (RLmale 1 cells) | amount of active oxygen on ultrasonic irradiation [5] |
| --- | --- | --- | --- | --- | --- | --- | --- | --- |
| Fullerene Linked to One Molecule of PEG (Molecular Weight 5000) [Example 1] | about 100,000 | about 50 nm | Increase of a tumor volume was suppressed | subcutaneous administration<intra-tumor administration<intravenous administration |  |  |  |  |
| Fullerene Linked to One Molecule of PEG (Molecular Weight 12000) [Example 2] |  | about 100 nm |  |  | generation of O2— was observed in a wide wavelength range from ultraviolet to visible light areas | 260 to 450 nm | significantly decreases the survival rate of cancer cells as the addition amount thereof increases | the amount of active oxygen increases according to the output increases |
